Test results reported in patent US7446199B2, “Compositions useful as inhibitors of protein kinases” (Vertex Pharmaceuticals Incorporated, priority 2003, dated 2008).

Target: T1, FLT-3 (Homo sapiens, UniProt P36888)
T1 construct: 0.02% BSA and 3 nM FLT-3
T1 sequence (P36888 27-993): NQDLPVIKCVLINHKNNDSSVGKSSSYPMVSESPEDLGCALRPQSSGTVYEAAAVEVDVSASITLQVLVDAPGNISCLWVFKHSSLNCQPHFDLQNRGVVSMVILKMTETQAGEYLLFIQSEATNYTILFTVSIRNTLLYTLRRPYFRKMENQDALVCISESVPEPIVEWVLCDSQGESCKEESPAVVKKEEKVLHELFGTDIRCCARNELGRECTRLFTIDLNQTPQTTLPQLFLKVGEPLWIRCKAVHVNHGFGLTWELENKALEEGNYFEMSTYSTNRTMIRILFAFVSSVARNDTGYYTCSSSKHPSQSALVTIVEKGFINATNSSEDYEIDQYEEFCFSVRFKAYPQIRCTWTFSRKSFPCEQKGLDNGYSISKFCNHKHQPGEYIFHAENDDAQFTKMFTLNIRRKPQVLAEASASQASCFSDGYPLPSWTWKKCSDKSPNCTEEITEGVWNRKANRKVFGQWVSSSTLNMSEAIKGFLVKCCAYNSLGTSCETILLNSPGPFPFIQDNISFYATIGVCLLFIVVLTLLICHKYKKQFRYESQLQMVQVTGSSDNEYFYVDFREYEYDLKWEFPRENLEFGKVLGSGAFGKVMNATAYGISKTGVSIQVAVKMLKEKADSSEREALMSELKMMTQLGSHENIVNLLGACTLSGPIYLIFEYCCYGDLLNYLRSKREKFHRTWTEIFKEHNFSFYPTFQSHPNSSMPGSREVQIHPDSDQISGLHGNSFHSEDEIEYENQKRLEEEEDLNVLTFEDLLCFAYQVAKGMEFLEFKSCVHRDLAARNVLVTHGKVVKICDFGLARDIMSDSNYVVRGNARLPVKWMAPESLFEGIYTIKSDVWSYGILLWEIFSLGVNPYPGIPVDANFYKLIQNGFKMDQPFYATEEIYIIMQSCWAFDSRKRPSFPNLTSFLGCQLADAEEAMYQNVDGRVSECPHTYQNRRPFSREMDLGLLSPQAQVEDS
Experiment: Inhibition of FLT-3, radiometric filter-binding assay
Format: biochemical
Conditions: 90 μM ATP, 0.5 mg/mL pE4Y, room temperature
Outline: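 Radiometric filter-binding assay of FLT-3 (3 nM in Solution 2; final conc not stated) phosphorylating poly(Glu,Tyr) 4:1 (0.5 mg/mL) with 90 μM ATP plus [γ-33P]ATP, in HEPES pH 7.5, MgCl2, NaCl, DTT, BSA, 2.5% DMSO. 12-point titration, typically 0.01–5 μM, 20 min at room temperature; TCA-stopped, filtered, scintillation-counted; IC50 or Ki fitted.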

| Ki [nM] | Structure (SMILES) |
| --- | --- |
| < 200 | CN1CCN(C(=O)[C@H]2C[C@@H]2c2cnc3[nH]cc(-c4oncc4-c4cccc(F)c4F)c3c2)CC1 (relative stereo) [Compound 142, trans-(2-{3-[4-(2,3-Difluoro-phenyl)-isoxazol-5-yl]-1H-pyrrolo[2,3-b]pyridin-5-yl}-cyclopropyl)-(4-methyl-piperazin-1-yl)-methanone] |
| 1000 to 12500 | Fc1cccc(-c2cnoc2-c2n[nH]c3ncccc23)c1F [Compound 31, 3-(4-(2,3-difluorophenyl)isoxazol-5-yl)-1H-pyrazolo[3,4-b]pyridine] |
| 1000 to 12500 | Fc1cccc(-c2cnoc2-c2c[nH]c3ccc(-c4ccncc4)cc23)c1F [Compound 34, 3-[4-(2,3-Difluoro-phenyl)-isoxazol-5-yl]-5-pyridin-4-yl-1H-indole] |
| 1000 to 12500 | Fc1cc(F)c(F)c(-c2cnoc2-c2c[nH]c3ncccc23)c1 [Compound 39, 3-[4-(2,3,5-Trifluoro-phenyl)-isoxazol-5-yl]-1H-pyrrolo [2,3-b]pyridine] |
| 1000 to 12500 | Fc1ccc(F)c(-c2cnoc2-c2c[nH]c3ncccc23)c1F [Compound 41, 3-[4-(2,3,6-Trifluoro-phenyl)-isoxazol-5-yl]-1H-pyrrolo [2,3-b]pyridine] |
| 1000 to 12500 | Fc1cccc(-c2cnoc2-c2c[nH]c3ncc(Cl)cc23)c1F [Compound 44, 3-[4-(2,3-Difluoro-phenyl)-isoxazol-5-yl]-5-chloro-1H-pyrrolo[2,3-b]pyridine] |
| 1000 to 12500 | Fc1cnc2[nH]cc(-c3oncc3-c3cccc(F)c3F)c2c1 [Compound 45, 3-[4-(2,3-Difluoro-phenyl)-isoxazol-5-yl]-5-fluoro-1H-pyrrolo[2,3-b]pyridine] |
| 200 to 1000 | Cc1cnc2[nH]cc(-c3oncc3-c3cccc(F)c3F)c2c1 [Compound 46, 3-[4-(2,3-Difluoro-phenyl)-isoxazol-5-yl]-5-methyl-1H-pyrrolo[2,3-b]pyridine] |
| 1000 to 12500 | OCc1cnc2[nH]cc(-c3oncc3-c3cccc(F)c3F)c2c1 [Compound 55, {3-[4-(2,3-Difluoro-phenyl)-isoxazol-5-yl]-1H-pyrrolo[2,3-b]pyridin-5-yl}-methanol] |
| 200 to 1000 | Fc1cccc(-c2cnoc2-c2c[nH]c3nc(Cl)c(-c4ccncc4)cc23)c1F [Compound 103, 6-Chloro-3-[4-(2,3-difluoro-phenyl)-isoxazol-5-yl]-5-pyridin-4-yl-1H-pyrrolo[2,3-b]pyridine] |
| 1000 to 12500 | O=C(c1cnc2[nH]cc(-c3oncc3-c3cccc(F)c3F)c2c1)N1CCCC1 [Compound 104, {3-[4-(2,3-Difluoro-phenyl)-isoxazol-5-yl]-1H-pyrrolo[2,3-b]pyridin-5-yl}-pyrrolidin-1-yl-methanone] |
| 1000 to 12500 | COc1cnc2[nH]cc(-c3nncn3-c3cccc(F)c3F)c2c1 [Compound 108, 3-[4-(2,3-Difluoro-phenyl)-4H-[1,2,4]triazol-3-yl]-5-methoxy-1H-pyrrolo[2,3-b]pyridine] |
| 1000 to 12500 | Fc1cccc(-n2cnnc2-c2c[nH]c3ncc(-c4ccc(N5CCNCC5)nc4)cc23)c1F [Compound 111, 3-[4-(2,3-Difluoro-phenyl)-4H-[1,2,4]triazol-3-yl]-5-(6-piperazin-1-yl-pyridin-3-yl)-1H-pyrrolo[2,3-b]pyridine] |
| 200 to 1000 | Fc1cccc(-c2cnoc2-c2c[nH]c3ncc(CCn4cncn4)cc23)c1F [Compound 132, 3-[4-(2,3-Difluoro-phenyl)-isoxazol-5-yl]-5-(2-[1,2,4]triazol-1-yl-ethyl)-1H-pyrrolo[2,3-b]pyridine] |
| 200 to 1000 | CN(C)C1CCC(c2cnc3[nH]cc(-c4oncc4-c4cccc(F)c4F)c3c2)CC1 (stereo not drawn) [Compound 141, (4-{3-[4-(2,3-Difluoro-phenyl)-isoxazol-5-yl]-1H-pyrrolo[2,3-b]pyridin-5-yl}-cyclohexyl)-dimethylamine] |
| < 200 | NC(=O)c1ccc(-c2cnc3[nH]cc(-c4oncc4-c4cccc(F)c4F)c3c2)cc1 [Compound 153] |
| 200 to 1000 | OB(O)c1cnc2[nH]cc(-c3oncc3-c3cccc(F)c3F)c2c1 [Compound 154] |
| < 200 | C[N+]1(C)CCN(c2ccc(-c3cnc4[nH]cc(-c5oncc5-c5cccc(F)c5F)c4c3)cc2)CC1 [Compound 155] |
